Laboratory results: article PMC3969104 (Journal of Medicinal Chemistry, 2014)
Blank lines part the entries; values can stand above or below the compound they belong to.

How the values were obtained:
[1] = tested on: 290 kinases panel; conditions: cited from earlier work
[2] = tested on: elav-Gal4GS > UAS-hTDP-43 transgenic flies; assay: Lifespan of transgenic hTDP-43 Drosophila; assay type: in vivo; conditions: 100 nM compound, log rank test versus DMSO
[3] = molecular target: CDC like kinase 1 (CLK1) (Homo sapiens, UniProt P49759); assay: KinomeScan screening, CLK1; assay type: binding; conditions: 10 μM
[4] = molecular target: fms-related tyrosine kinase 1 (FLT1) (Homo sapiens, UniProt P17948); assay: KinomeScan screening, FLT1; assay type: binding; conditions: 10 μM
[5] = molecular target: T1, CK-1δ (Homo sapiens, UniProt P48730); assay: KinomeScan screening, CK-1δ; assay type: binding; conditions: 10 μM
[6] = molecular target: T1, CK-1δ; assay: Kinetic studies on CK-1δ; assay type: biochemical; conditions: ATP 1 to 50 μM, casein 12.5 μM, double reciprocal plot
[7] = tested on: TDP-43 phosphorylation (pS409/410) in HEK293 cells; assay: Ethacrynic acid induced TDP-43 phosphorylation in HEK293 cells
[8] = molecular target: CK-1ε (Homo sapiens, UniProt P49674); assay: KinomeScan screening, CK-1ε; assay type: binding; conditions: 10 μM
[9] = molecular target: DYRK1B (Homo sapiens, UniProt Q9Y463); assay: KinomeScan screening, DYRK1B; assay type: binding; conditions: 10 μM
[10] = molecular target: CDC like kinase 4 (CLK4) (Homo sapiens, UniProt Q9HAZ1); assay: KinomeScan screening, CLK4; assay type: binding; conditions: 10 μM
[11] = molecular target: platelet-derived growth factor receptor (PDGFRB) (Homo sapiens, UniProt P09619); assay: KinomeScan screening, PDGFRB; assay type: binding; conditions: 10 μM
[12] = molecular target: DYRK1A (Homo sapiens, UniProt Q13627); assay: KinomeScan screening, DYRK1A; assay type: binding; conditions: 10 μM
[13] = molecular target: CK-1γ2 (Homo sapiens, UniProt P78368); assay: KinomeScan screening, CK-1γ2; assay type: binding; conditions: 10 μM
[14] = tested on: panel of 456 protein kinases; assay: KinomeScan selectivity screening on a kinase panel; assay type: binding, human; conditions: 10 μM, 456 kinases; number of kinases bound divided by distinct kinases tested
[15] = molecular target: CK-1α1 (Homo sapiens, UniProt P48729); assay: KinomeScan screening, CK-1α1; assay type: binding; conditions: 10 μM
[16] = molecular target: T2, myosin light chain kinase 3 (MLCK) (Homo sapiens, UniProt Q32MK0); assay: KinomeScan screening, MLCK; assay type: binding; conditions: 10 μM
T2 sequence (Q32MK0 1-819): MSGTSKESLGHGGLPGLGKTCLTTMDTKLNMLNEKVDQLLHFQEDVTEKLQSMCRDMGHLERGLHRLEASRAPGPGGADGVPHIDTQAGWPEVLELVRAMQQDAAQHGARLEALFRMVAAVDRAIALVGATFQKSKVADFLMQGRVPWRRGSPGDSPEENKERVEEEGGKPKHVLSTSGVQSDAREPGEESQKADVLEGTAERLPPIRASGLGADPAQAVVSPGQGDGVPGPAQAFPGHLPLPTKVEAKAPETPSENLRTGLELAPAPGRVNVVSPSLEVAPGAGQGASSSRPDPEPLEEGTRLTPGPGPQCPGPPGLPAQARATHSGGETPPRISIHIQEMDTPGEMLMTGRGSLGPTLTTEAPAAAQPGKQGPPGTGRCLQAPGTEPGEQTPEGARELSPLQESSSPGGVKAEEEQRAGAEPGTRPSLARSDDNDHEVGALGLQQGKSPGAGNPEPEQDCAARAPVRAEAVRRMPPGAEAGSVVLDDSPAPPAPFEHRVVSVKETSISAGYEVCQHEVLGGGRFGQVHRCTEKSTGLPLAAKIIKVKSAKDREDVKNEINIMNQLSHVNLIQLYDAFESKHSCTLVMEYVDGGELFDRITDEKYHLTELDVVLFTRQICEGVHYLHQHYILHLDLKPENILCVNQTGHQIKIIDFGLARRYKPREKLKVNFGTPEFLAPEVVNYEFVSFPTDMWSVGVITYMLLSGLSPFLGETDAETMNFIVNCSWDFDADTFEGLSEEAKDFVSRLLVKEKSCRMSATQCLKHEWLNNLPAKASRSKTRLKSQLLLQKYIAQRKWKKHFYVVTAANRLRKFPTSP

[17] = tested on: amyotrophic lateral sclerosis (ALS); conditions: ALS patients; cited from earlier work
[18] = PAMPA-BBB permeability assay; conditions: PAMPA vehicle PBS:EtOH (70:30)
[19] = molecular target: T1, CK-1δ; assay type: biochemical
[20] = HEK293, 1.5 h pretreatment, 150 μM ethacrynic acid

T1 sequence (P48730 whole entry): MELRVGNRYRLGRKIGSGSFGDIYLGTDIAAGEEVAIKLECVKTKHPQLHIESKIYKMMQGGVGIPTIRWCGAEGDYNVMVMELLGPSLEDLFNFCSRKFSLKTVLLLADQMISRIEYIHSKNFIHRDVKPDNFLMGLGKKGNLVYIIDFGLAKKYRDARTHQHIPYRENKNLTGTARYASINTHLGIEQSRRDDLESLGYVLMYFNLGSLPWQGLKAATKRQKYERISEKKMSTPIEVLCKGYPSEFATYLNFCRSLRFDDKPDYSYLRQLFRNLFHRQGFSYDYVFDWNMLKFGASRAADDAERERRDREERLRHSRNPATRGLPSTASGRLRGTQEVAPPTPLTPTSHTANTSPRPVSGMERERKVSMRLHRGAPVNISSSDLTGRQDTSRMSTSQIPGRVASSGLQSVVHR
CDC like kinase 1 (CLK1), sequence (P49759 whole entry): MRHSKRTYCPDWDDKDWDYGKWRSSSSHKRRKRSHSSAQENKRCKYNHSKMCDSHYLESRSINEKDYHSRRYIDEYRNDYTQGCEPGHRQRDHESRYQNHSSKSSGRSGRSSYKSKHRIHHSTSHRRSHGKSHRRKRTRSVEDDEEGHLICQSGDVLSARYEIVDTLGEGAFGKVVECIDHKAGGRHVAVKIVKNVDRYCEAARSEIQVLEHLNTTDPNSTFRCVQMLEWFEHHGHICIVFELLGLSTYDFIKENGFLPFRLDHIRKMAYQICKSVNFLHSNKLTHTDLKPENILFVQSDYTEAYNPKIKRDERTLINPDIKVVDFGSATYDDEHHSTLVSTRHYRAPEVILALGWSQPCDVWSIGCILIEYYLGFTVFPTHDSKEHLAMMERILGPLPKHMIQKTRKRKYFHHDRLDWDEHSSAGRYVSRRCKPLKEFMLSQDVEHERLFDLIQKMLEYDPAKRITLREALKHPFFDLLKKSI
CK-1ε, sequence (P49674 whole entry): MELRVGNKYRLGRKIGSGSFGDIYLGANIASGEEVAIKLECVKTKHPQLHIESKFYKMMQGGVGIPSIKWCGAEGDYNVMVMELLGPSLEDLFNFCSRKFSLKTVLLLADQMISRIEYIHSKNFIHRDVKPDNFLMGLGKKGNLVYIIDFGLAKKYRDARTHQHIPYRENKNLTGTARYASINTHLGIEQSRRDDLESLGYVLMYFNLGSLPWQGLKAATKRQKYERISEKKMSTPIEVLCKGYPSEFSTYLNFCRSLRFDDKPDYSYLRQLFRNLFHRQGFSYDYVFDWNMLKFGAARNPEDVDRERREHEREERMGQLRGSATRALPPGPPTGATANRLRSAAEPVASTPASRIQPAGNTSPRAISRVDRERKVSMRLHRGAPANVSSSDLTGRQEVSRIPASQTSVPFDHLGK
CK-1γ2, sequence (P78368 whole entry): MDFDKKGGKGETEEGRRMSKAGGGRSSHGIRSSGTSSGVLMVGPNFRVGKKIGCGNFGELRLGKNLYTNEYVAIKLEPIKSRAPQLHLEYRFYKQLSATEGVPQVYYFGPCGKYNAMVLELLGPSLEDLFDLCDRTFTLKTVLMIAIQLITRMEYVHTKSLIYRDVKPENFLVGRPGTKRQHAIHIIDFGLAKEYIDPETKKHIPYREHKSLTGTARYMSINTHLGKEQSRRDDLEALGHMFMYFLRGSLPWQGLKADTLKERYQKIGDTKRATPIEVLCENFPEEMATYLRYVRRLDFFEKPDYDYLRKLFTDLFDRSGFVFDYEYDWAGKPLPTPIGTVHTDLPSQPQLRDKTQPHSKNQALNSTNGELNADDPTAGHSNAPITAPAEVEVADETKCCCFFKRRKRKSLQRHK
CK-1α1, sequence (P48729 whole entry): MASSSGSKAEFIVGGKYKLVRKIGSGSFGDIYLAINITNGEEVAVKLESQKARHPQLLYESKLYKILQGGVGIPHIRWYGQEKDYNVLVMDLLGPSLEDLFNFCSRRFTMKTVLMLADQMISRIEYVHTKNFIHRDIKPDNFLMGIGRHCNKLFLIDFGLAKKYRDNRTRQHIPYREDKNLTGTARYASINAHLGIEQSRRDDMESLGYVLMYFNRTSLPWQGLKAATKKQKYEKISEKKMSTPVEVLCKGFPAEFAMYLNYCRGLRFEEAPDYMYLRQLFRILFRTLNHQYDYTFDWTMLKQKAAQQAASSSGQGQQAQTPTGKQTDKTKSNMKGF
DYRK1B, sequence (Q9Y463 whole entry): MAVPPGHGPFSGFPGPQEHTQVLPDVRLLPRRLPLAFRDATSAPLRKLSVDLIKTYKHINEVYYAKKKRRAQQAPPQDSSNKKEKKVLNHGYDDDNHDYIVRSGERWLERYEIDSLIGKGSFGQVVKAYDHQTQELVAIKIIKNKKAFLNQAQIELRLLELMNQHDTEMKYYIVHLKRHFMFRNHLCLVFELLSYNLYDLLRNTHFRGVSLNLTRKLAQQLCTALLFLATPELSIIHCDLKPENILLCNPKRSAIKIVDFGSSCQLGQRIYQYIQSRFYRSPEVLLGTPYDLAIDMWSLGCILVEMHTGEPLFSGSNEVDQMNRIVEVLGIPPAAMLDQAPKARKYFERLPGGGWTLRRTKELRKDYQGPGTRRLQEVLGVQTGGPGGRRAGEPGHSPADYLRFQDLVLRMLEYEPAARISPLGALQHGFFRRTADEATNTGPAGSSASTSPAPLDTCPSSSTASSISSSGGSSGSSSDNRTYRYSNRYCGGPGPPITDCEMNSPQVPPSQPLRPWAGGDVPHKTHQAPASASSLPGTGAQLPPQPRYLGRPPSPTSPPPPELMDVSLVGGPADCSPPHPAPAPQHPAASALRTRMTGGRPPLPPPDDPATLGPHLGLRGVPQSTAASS
fms-related tyrosine kinase 1 (FLT1), sequence (P17948 27-1338): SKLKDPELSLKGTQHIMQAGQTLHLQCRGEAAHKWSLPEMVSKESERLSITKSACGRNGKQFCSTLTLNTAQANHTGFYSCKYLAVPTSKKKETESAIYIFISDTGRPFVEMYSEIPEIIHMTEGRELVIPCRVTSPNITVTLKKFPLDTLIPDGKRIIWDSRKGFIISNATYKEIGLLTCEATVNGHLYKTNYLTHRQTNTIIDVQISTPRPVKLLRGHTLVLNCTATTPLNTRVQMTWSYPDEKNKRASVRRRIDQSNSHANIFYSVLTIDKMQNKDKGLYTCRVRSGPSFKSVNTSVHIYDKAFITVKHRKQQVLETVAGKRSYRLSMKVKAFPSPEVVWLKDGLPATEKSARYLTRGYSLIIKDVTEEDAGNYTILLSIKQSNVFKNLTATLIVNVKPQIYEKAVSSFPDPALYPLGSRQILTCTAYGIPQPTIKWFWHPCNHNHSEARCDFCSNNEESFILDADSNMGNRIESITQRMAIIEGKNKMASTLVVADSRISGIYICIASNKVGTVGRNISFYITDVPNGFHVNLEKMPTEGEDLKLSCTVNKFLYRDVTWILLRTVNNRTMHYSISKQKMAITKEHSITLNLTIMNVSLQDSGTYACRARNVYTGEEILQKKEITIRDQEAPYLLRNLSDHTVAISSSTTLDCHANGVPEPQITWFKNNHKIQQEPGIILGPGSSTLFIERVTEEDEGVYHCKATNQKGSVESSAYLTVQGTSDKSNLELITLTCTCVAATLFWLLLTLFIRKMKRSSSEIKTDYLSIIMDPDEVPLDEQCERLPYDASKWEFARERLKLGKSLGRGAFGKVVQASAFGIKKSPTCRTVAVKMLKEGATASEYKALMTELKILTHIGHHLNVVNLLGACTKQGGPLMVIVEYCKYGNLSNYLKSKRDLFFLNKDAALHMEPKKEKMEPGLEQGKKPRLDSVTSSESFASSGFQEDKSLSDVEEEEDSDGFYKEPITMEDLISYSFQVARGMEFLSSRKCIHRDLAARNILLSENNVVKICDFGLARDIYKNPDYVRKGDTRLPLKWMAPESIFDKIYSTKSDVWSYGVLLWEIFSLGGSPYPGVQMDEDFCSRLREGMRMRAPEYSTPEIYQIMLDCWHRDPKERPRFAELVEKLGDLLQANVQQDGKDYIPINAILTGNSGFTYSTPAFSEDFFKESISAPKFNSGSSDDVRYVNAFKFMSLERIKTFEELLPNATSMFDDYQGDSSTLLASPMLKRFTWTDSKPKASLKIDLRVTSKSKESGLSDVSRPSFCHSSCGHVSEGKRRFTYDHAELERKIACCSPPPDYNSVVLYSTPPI
CDC like kinase 4 (CLK4), sequence (Q9HAZ1 whole entry): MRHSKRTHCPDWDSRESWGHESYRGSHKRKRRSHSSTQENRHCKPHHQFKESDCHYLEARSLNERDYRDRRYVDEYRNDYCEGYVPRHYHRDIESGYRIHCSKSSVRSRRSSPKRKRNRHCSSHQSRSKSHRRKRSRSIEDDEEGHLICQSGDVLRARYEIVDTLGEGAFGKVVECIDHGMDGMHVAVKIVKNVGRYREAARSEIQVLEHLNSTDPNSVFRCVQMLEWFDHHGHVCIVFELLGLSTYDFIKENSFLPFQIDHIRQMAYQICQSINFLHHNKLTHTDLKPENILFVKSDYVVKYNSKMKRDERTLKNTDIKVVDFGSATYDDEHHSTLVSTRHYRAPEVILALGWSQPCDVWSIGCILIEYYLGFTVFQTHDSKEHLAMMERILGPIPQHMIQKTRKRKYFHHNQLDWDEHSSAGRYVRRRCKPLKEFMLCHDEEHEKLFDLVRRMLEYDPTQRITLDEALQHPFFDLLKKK

SMILES: CS(=O)(=O)CCNCc1ccc(-c2ccc3ncnc(Nc4ccc(OCc5cccc(F)c5)c(Cl)c4)c3c2)o1 [Lapatinib]
- S score [1]: 0.010

SMILES: O=C(Cc1ccc(Cl)cc1)Oc1nc2ccccc2s1 [Compound 9, (Benzothiazol-2-yl)-2-(4-chlorophenyl)acetate]
- effect on fly lifespan [2]: did not significantly modify fly longevity

- inhibition of CLK1 [3]: inhibited
- inhibition of FLT1 [4]: inhibited
- inhibition of CK-1δ [5]: inhibited
- mechanism of CK-1δ inhibition with respect to ATP [6]: ATP competitive inhibition
- inhibition of CK-1ε [8]: inhibited
- inhibition of DYRK1B [9]: inhibited
- inhibition of CLK4 [10]: inhibited
- inhibition of PDGFRB [11]: inhibited
- inhibition of DYRK1A [12]: inhibited
- inhibition of CK-1γ2 [13]: inhibited
- selectivity score (S score) [14]: 0.04
- inhibition of CK-1α1 [15]: inhibited
- inhibition of MLCK [16]: inhibited
SMILES: O=C(Cc1cccc(Cl)c1)Nc1nc2ccc(C(F)(F)F)cc2s1 [Compound 20, 2-(3-Chlorophenyl)-N-(6-(trifluoromethyl)benzothiazol-2-yl)acetamide]
- concentration with inhibition of TDP-43 phosphorylation [7, 20]: above 80 μM
- effect on fly lifespan [2]: significantly increased

SMILES: O=C(Cc1cccc(C(F)(F)F)c1)Nc1nc2ccc(C(F)(F)F)cc2s1 [Compound 41, N-(6-(Trifluoromethyl)benzothiazol-2-yl)-2-(3-(trifluoromethyl)phenyl)acetamide]
- fold reduction in TDP-43 phosphorylation ([7]; HEK293, by 10 μM inhibitor): greater than 2 fold

SMILES: O=C(Cc1ccccc1)Nc1nc2ccc(C(F)(F)F)cc2s1 [Compound 46, N-(6-(Trifluoromethyl)benzothiazol-2-yl)-2-phenylacetamide]
- concentration with nearly complete absence of TDP-43 phosphorylation ([7]; HEK293, 1.5 h pretreatment, 150 μM ethacrynic acid, range 1.25-160 μM): ≥ 2.5 µM

SMILES: Nc1nc2ccc(OC(F)(F)F)cc2s1 [Riluzole]
- extension of survival [17]: 2–3 months

SMILES: CCN(CC)CCNC(=O)c1c(C)[nH]c(/C=C2\C(=O)Nc3ccc(F)cc32)c1C [Sunitinib]
- S score [1]: 0.57

- mechanism of CK-1δ inhibition with respect to ATP [6]: ATP competitive inhibition
SMILES: COc1ccccc1CC(=O)Nc1nc2ccc(C(F)(F)F)cc2s1 [Compound 34, N-(6-(Trifluoromethyl)benzothiazol-2-yl)-2-(2-methoxyphenyl)acetamide]
- concentration with inhibition of TDP-43 phosphorylation [7, 20]: above 80 μM

- inhibition of CLK1 [3]: inhibited
- inhibition of FLT1 [4]: inhibited
- inhibition of CK-1δ [5]: inhibited
- mechanism of CK-1δ inhibition with respect to ATP [6]: ATP competitive inhibition
- inhibition of CK-1ε [8]: inhibited
- inhibition of DYRK1B [9]: inhibited
- inhibition of CLK4 [10]: inhibited
- inhibition of PDGFRB [11]: inhibited
- solubility in the assay vehicle [18]: low solubility
- inhibition of DYRK1A [12]: inhibited
- inhibition of CK-1γ2 [13]: inhibited
- inhibition of CK-1α1 [15]: inhibited
- inhibition of MLCK [16]: inhibited
SMILES: O=C(Cc1ccccc1Cl)Nc1nc2ccc(C(F)(F)F)cc2s1 [Compound 24, 2-(2-Chlorophenyl)-N-(6-(trifluoromethyl)benzothiazol-2-yl)acetamide]
- concentration with moderate inhibition of TDP-43 phosphorylation [7, 20]: ≥ 1.25 µM
- effect on fly lifespan [2]: significantly increased

SMILES: COc1cccc(CC(=O)Nc2nc3ccc(C(F)(F)F)cc3s2)c1 [Compound 38, N-(6-(Trifluoromethyl)benzothiazol-2-yl)-2-(3-methoxyphenyl)acetamide]
- concentration giving significant reduction of TDP-43 phosphorylation [7, 20]: 5 µM

- mechanism of CK-1δ inhibition with respect to ATP [6]: ATP competitive inhibitor
SMILES: COc1cc(OC)c(C=C2C(=O)Nc3ccccc32)c(OC)c1 [IC261, reference compound]

- fold less potent than 20 and 24 as CK-1δ inhibitor [19]: 100 fold
SMILES: COc1ccc2nc(NC(=O)Cc3ccccc3OC)sc2c1 [Compound 35, N-(6-Methoxybenzothiazol-2-yl)-2-(2-methoxyphenyl)acetamide]
- effect on fly lifespan [2]: significantly increased
